In US7989188B2, “Conjugates for cancer therapy and diagnosis” (BioSight Ltd., priority 2004, dated 2011):

Experiments:
[1] = test system: MX-1 human mammary duct carcinoma; assay: Anti-tumor activity, MX-1 xenograft murine model, intravenous treatment; format: in vivo, BALB/c nude mice; conditions: for increase in tumor volume at the end of the study period: injected Days 10, 14 and 18, Asp(5-FU) 50 and 100 mg/kg, 5-FU 26 mg/kg, saline 170%
Experimental: The potential anti-tumor activity of Asp(5-FU) was assessed based on the relative growth inhibition of human mammary duct carcinoma, MX-1 murine model.
Propagation of Tumor Material (MX-1 fragments): The Mammary Xenograft-1 (MX-1) is a human derived mammary duct carcinoma, supplied by the National Cancer Institute (NCI). The tissue was kept frozen until the time of implantation. The fragments (one to each animal in the study) were prepared according to the NCI recommended transplantation protocol.
Each vial containing 5 to 6 fragments was rapidly thawed (60-90 seconds) in a water bath at 37-40° C. The frozen fragments were implanted immediately after thawing.
Two fragments were implanted close to each other at the same sub-axillary incision site of each animal assigned to the propagation phase. The mass doubling time of the MX-1 tumor during the logarithmic phase was 4-5 days post implantation. Subsequently, another 2 fragments were implanted into each of 6 animals to achieve at least a total of 20 implanted fragments.
At the end of the logarithmic phase, the donor animals were sacrificed, the tumors were excised, dissected and transferred to a sterile Petri dish placed over ice and cut into approximately 20 fragments (about 2×2×2 mm each) for their transplantation into 10 naïve mice. A total of 42 tumor fragments were transplanted at the end of the second propagation phase. No more than 30 minutes elapsed from the time the tumor was removed from the donor animals until transplantation.
Tumor Induction and Monitoring (Pre-Treatment): Upon completion of the propagation phase, tumor fragments measuring about 2×2×2 mm each, were implanted subcutaneously (SC) into the right flank of each test animal assigned to the main study. Tumor growth was monitored twice weekly and the total SC mass (mm^3) determined on the basis of width and length measurement using micrometer calipers. […]
Tumor volume changes were determined using the following equation: V (mm^3)=d^2 (mm^2)×D (mm)/2 wherein d and D represent the smallest and the largest perpendicular tumor diameters respectively. […]
Body Weight: Individual body weights were determined prior to MX-1 fragment transplantation and thereafter once weekly until initiation of treatment. Following initiation of treatment individual body weights were determined twice weekly until the scheduled study termination or in case of removal of animals from the study due to animal welfare reasons, at the time of death.
Necropsy Procedures and Macroscopic Examination: Necropsy was performed on all animals including those removed from the study for animal welfare reasons and all surviving 10 days after the last dosing session (Groups 1, 2 & 3), following euthanasia. […] All gross pathological changes were recorded. […]

[2] = test system: human mammary duct carcinoma xenograft MX-1; assay: Anti-tumor activity, MX-1 xenograft murine model, oral gavage; format: in vivo, mice; conditions: PO gavage 200 mg/kg, seven administrations at 3-days inter-dosing intervals
Experimental: The compounds were administered to mice following about 3-6 hours food deprivation prior to dosing, using a suitable stainless steel feeding needle. Following dosing, food was withheld for further 1-2 hours.
Dose and Volume Dosage: 50 mg/kg reference item and 200 mg/kg of Asp(5-FU). In all instances, volume dosage was 10 ml/kg.
Frequency and Duration: Treatment with Control, Test or Reference Items was carried out as 1× daily injection at 3-days inter-dosing intervals×7 (days 1-25).

[3] = test system: mice; assay: Acute toxicity (MTD), single administration by oral gavage; conditions: single PO 200 and 400 mg/kg
Experimental: (§1) OBJECTIVE: To determine the Maximum Tolerated Dose (MTD) of the test product, Asp(5-FU), following a single administration by oral gavage (PO) to mice.
(§2) This experiment was performed essentially according to Example 22 supra, with the exception that the test agent and the controls were administered orally, by oral gavage. Asp(5-FU) was suspended in corn oil and administered by single oral gavage (PO), at 2 dose levels of 200 and 400 mg/kg, to 2 test groups. An additional equally sized group was administered the vehicle (corn oil) and served as control. In all instances the volume dosage was 10 ml/kg.

[4] = as above; conditions: mouse, in vivo, po
Experimental: as §1, §2

[5] = test system: BALB/c female mice; assay: Acute intravenous (IV) toxicity, single injection, MTD and LD50
Experimental: (§3) Purpose: To measure the potential acute intravenous (IV) toxicity of Asp(5-FU) in mice, estimated by Maximum Tolerated Dose (MTD) and 50% Lethal Dose (LD50).
(§4) Method: The potential acute intravenous (IV) toxicity of the Asp(5-FU) was assessed in groups of BALB/c female mice of 5 mice per group, in order to establish appropriate MTD levels towards a projected series of various anti-tumorigenic efficacy trials.
(§5) Asp(5-FU) was administered as single IV injections at three dose levels of 80, 150 and 200 mg/kg. One group was administered with saline served as control. In all instances, freshly prepared solutions were injected at a constant volume of 10 ml/kg.

[6] = as above; conditions: female, BALB/c, mouse, in vivo, iv
Experimental: as §3, §4, §5

[7] = test system: Human umbilical vein endothelial cells (HUVEC, normal); assay: In-vitro toxicity profile, MTT cell viability; format: cell-based; conditions: normal cells (HUVEC), 72 hours, at the concentration of 5-FU that causes 50% mortality (IC50), FIG. 1
Experimental: (§6) Materials and Methods: Human umbilical vein endothelial cells (HUVEC, normal) cells were grown in M199 medium supplemented with 20% fetal calf serum (FCS), vitamins, 1 ng/ml hbFGF, and antibiotics at […], 5% CO2. Human melanoma cells (WW-94, cancer) cells were grown in 50% DMEM/50% F-12 medium supplemented with 10% fetal calf serum and antibiotics.
(§7) The cells were seeded in a 96-well ELISA dish at a concentration of 10,000-20,000 cells/well. The conjugates were added at concentrations that cause IC50 (50% lethality, FIG. 1), or IC90 (90% lethality, FIG. 2) by 5-FU. The cells were incubated for 72 hours at 37° C. and 5% CO2. After 72 hours the medium was aspirated, and DMEM containing 5% FCS and 0.5 mg/ml MTT (3-(4,5-Dimethyl-2-thiazolyl)-2,5-diphenyl-2H-tetrazolium bromide, an indicator of cell viability) was added. The cells were incubated for 2-4 hours at 37° C. and 5% CO2, washed with phosphate buffer saline (PBS) and dissolved in dimethylsulfoxide (DMSO). The results were analyzed using Techan ELISA reader equipped with a 570 nm filter. The results are represented as % of cell mortality.

[8] = In-vitro toxicity profile, MTT cell viability; format: cell-based; conditions: human, HUVEC (human umbilical vein endothelial cells, normal), healthy cells (HUVEC), at the concentration of 5-FU that resulted in 90% mortality (IC90), FIG. 2
Experimental: as §6, §7

[9] = test system: mice; conditions: NIH report; cited from earlier work

Row | SMILES | tumor progression compared to controls ([1]; Asp(5-FU) 50 and 100 mg/kg, tumor volume, FIG. 5) | tumor weight upon necropsy compared to 5-FU and saline control ([1]; end of treatment period, FIG. 6) | increase in tumor volume at the end of the study period [1] | progressive tumor development compared to corn oil controls [2] | gross pathological findings at scheduled necropsy [3] | clinical signs in reaction to dosing ([3]; 14-day observation period) | MTD at 14 days [4] | less toxic than 5-FU ([5]; female, BALB/c, mouse, in vivo) | gross pathological findings at scheduled necropsy ([5]; single IV 80, 150 and 200 mg/kg) | Incidence of mortality ([5]; single IV injection, high-dose group 200 mg/kg, immediate post-dosing period) | clinical signs ([5]; single IV, high-dose 200 mg/kg, survivors or decedents respectively) | clinical signs ([5]; single IV, intermediate- and low-dose 150 & 80 mg/kg) | Mean group body weight ([5]; single IV, intermediate-dose group, Day 8, p<0.01, full recovery Day 8-15) | LD50 [6] | MTD [6] | % of cell mortality [7] | mortality at 72 h [8] | LD50 [9] | MTD [9]
1 | NC(CC(=O)n1cc(F)c(=O)[nH]c1=O)C(=O)O [Asp(5-FU), L-aspartic acid-beta-1N-(2,4-dioxo-5-fluoropyrimidine)] | significant reduction in tumor progression | significant decrease | 104% | relative decrease in progressive tumor development | No gross pathological findings | No noticeable clinical signs | > 400 mg/kg | 600% | No gross pathological findings | 3/5 | brief decreased motor activity or lateral recumbency | No obvious clinical signs | transient reduced body weight | 200 mg/kg | 160 mg/kg | did not kill normal cells | 20% | – | –
2 | O=c1[nH]cc(F)c(=O)[nH]1 [Compound 5-FU, 2,4-dioxo-5-fluoropyrimidine] | – | – | 185% | – | – | – | – | – | – | – | – | – | – | – | – | – | – | 81 mg/kg | 24 to 26 mg/kg
